Experimental data reported in publication PMC10056348, “Photocaged Histone Deacetylase Inhibitors as Prodrugs in Targeted Cancer Therapy” (Pharmaceuticals, 2023).
Read-outs that look alike come from different tables or passages of the source.

Columns and labels:
human recombinant HDAC1 = biological target: T1, human recombinant HDAC1 (Homo sapiens, UniProt Q13547); assay: Fluorogenic HDAC enzyme inhibition assay (ZMAL substrate), HDAC1; format: biochemical
T1 construct: purchased BPS Bioscience Inc. 50051
T1 sequence (Q13547 whole entry): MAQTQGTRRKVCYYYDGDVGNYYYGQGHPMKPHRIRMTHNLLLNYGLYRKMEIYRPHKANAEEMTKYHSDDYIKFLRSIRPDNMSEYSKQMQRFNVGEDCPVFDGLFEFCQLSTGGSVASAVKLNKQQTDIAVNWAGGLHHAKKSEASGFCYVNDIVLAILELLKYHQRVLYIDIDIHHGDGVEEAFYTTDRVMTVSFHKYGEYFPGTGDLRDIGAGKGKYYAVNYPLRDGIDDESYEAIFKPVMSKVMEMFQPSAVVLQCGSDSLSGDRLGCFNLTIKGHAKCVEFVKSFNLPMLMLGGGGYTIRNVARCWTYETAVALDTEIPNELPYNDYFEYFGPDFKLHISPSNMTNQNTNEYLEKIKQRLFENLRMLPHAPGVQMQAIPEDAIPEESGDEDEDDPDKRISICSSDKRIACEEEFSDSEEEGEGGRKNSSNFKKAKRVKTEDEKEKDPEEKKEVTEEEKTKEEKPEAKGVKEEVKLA
Procedure: (§1) First, predilutions (100-fold final assay concentration) of test compounds or reference inhibitors were prepared. To this end, 3-fold serial dilutions of the respective DMSO stock solutions were prepared in DMSO using clear V-bottom 96-well microplates (Greiner Bio-One, Greiner AG, Kremsmünster, Austria). Predilutions designated for photolysis were irradiated for 10 min using the UV reactor described above. […] Next, 5.0 µL of these serial dilutions in assay buffer were transferred into 96-well microplates (OptiPlate-96 Black, PerkinElmer, Waltham, MA, USA). […] Fluorescence (excitation: 355 nm, emission: 460 nm) was measured using a FLUOstar OPTIMA microplate reader (BMG LABTECH GmbH, Ortenberg, Germany). IC50 values were determined by generating normalized dose–response curves using the built-in “log(inhibitor) vs. response (three parameters)” equation provided by GraphPad Prism (GraphPad Prism 9.0, San Diego, CA, USA). All compounds were tested in duplicates; reported mean IC50 values, including standard deviation, were calculated from at least two independent experiments.

human recombinant HDAC6 = biological target: T2, human recombinant HDAC6 (Homo sapiens, UniProt Q9UBN7); assay: Fluorogenic HDAC enzyme inhibition assay (ZMAL substrate), HDAC6; format: biochemical
T2 construct: purchased BPS Bioscience Inc. 50006
T2 sequence (Q9UBN7 1-1215): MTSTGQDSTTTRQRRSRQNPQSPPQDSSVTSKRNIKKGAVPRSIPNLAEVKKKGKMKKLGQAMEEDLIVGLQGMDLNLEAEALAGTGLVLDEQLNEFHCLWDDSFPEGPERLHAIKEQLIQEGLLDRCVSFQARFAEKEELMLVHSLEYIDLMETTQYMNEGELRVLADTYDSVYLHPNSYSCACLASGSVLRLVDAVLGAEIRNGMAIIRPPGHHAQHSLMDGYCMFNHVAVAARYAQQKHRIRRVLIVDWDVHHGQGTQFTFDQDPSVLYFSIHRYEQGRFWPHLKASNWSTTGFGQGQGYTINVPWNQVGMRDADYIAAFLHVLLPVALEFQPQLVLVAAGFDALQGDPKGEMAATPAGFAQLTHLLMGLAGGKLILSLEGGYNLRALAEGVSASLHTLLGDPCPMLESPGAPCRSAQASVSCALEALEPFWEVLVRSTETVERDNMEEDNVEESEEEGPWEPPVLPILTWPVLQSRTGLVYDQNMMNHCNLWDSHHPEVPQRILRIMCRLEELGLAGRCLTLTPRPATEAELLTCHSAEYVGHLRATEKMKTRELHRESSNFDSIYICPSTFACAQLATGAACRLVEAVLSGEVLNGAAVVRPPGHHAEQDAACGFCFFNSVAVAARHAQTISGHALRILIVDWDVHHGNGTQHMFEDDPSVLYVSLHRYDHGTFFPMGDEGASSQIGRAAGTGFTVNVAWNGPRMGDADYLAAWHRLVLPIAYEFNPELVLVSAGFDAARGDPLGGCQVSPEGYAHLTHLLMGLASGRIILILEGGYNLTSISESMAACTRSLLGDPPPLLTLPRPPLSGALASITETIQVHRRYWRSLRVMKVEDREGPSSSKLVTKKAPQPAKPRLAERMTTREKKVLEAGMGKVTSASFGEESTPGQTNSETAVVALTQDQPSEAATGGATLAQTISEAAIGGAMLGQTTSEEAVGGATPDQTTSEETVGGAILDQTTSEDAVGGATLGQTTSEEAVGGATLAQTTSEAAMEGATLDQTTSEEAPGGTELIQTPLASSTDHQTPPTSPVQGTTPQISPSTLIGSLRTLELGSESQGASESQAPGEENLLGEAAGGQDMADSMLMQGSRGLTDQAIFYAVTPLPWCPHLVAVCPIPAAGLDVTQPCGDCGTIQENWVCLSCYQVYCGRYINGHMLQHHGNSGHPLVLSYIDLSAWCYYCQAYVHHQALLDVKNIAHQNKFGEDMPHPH
Procedure: as §1

[1] = system: cellular HDAC activity in MV-3 cells; assay: HDAC whole-cell assay; format: cell-based; conditions: for IC50: read-out: IC50 whole-cell HDAC inhibition
Procedure: The amelanotic melanoma cell line MV-3 was obtained from EPO GmbH Berlin-Buch. The human ovarian carcinoma cell line A2780 was obtained from the European Collection of Cell Cultures (ECACC, Salisbury, UK). The cell lines were cultivated in RPMI 1640 medium supplemented with 10% fetal bovine serum and 50 U/mL penicillin and 50 µg/mL streptomycin and incubated at 37 °C under humidified air with 5% CO2 to 80–90% confluency before being used in further assays.
The HDAC whole-cell assay is based on the assay established by Ciossek et al. and Bonfils et al., with minor changes. Melanoma cells MV-3 were seeded in concentration of 15 × 10^3 cells/well (total volume of 81 µL) in 96-well cell-culture microplates (Catalog# 655086, Greiner Bio-One, Frickenhausen, Germany ) and cultured for 24 h. Aliquots of the DMSO stock solutions (10 mM) designated for photolysis were irradiated for 10 min with the UV reactor (see Section 4.3). The stock solutions processed with or without irradiation were used to perform a 4-fold serial dilution in PBS. Next, the cells were treated with 9 µL of the serial dilution for 18 h. For the analysis of the remaining HDAC activity, 10 µL of substrate solution, containing 3 mM Boc-Lys(ε-Ac)-AMC (Catalog# 233691-67-3, BLD pharmatech GmbH, Kaiserslautern, Germany) and 0.5% IGEPAL CA-630 (Catalog# J61055, Alfa Aesar, Thermo Fisher Scientific, Heysham, United Kingdom), was added and incubated for 3 h under cell culture conditions. The reaction was stopped with 100 µL of stop solution (50 mM Tris-HCl, 137 mM NaCl, 2.7 mM KCl, 1 mM MgCl2, 1% IGEPAL CA-630, 10 µM vorinostat, 2.0 mg/mL trypsin) and developed for 1.5 h under cell culture conditions. The fluorescence signal was measured using a Spark multimode microplate reader (Tecan Group AG, Männedorf, Swiss) at excitation wavelength of λ = 355 nm and emission wavelength of λ = 460 nm. Concentration-effect curves were generated using the four-parameter logistic equation (GraphPad Prism 9.0, San Diego, CA, USA), and mean IC50 values were determined by nonlinear regression based on at least three independent experiments in duplicates.

[2] = after UV irradiation (365 nm, 10 min)

IC50 (human recombinant HDAC1; without UV irradiation)	IC50 (human recombinant HDAC6; without UV irradiation)	IC50 ([1]; 18 h, without UV irradiation)	IC50 ([1]; MV-3, light or radiation study, 18 h, without UV irradiation)	IC50 (human recombinant HDAC1; [2])	increase of HDAC1 inhibition upon irradiation with UV light (human recombinant HDAC1; irradiated vs non-irradiated)	IC50 (human recombinant HDAC6; [2])	increase of HDAC6 inhibition upon irradiation with UV light (human recombinant HDAC6; irradiated vs non-irradiated)	IC50 ([1]; light or radiation study, 18 h, after UV irradiation (365 nm, 10 min))	Compound	IC50 whole-cell HDAC inhibition ([1]; 18 h, without UV irradiation)	inhibition at 25 µM ([1]; light or radiation study, at 25 µM, without UV irradiation)
0.0127 ± 0.0007 µM	0.0131 ± 0.0009 µM	0.0906 ± 0.00574 µM	0.091 µM	–	–	–	–	–	CN(C)c1ccc(C(=O)N(CC(=O)NCc2ccccc2)Cc2ccc(C(=O)NO)cc2)cc1 [I, N-[2-(benzylamino)-2-oxoethyl]-4-(dimethylamino)-N-[4-(hydroxycarbamoyl)-benzyl]-benzamide]	–	–
0.824 ± 0.0322 µM	0.794 ± 0.0747 µM	–	–	0.0068 ± 0.0012 µM	121 fold	0.0216 ± 0.0028 µM	37 fold	0.073 µM	COc1cc(CONC(=O)c2ccc(CN(CC(=O)NCc3ccccc3)C(=O)c3ccc(N(C)C)cc3)cc2)c([N+](=O)[O-])cc1OC [pc-I, N-[2-(Benzylamino)-2-oxoethyl]-N-(4-{[(4,5-dimethoxy-2-nitrobenzyl)oxy]carbamoyl}benzyl)-4-(dimethylamino)benzamide]	n.e. (no effect: <25% inhibition at 25 µM)	< 25%
